Here are results for four compounds from patent US4467104A, “Esters of 2-(2-chlorocarbonyl)-2-(2,3-dihydro-2-alkylbenzofuran-7-yl)-hydrazinecar boxylic acid” (Shell Oil Company, priority 1982, dated 1984).

Common to all, as to assay type: in vivo
Experiment [1] relates to Houseflies (Musca domestica (Linne)). Kind of experiment: Housefly spray test (mortality after 18-20 hours). The note with it: concentration by weight in the formulation. As for the experimental part: I. Houseflies (Musca domestica (Linne)) were tested by placing 50 4- to 5-day old housflies into a spray cage and spraying with 0.6 ml of a solution of test compound. After spraying, the flies were anesthetized with CO2 and transferred to a recovery cage containing a milk pad for food. The cages were held for 18-20 hours after which mortality counts were made. Both dead and moribund flies were counted. The tests were conducted employing several different dosage rates for each test compound.
(§1) In the case of each species of insect, the concentration of the test compound by weight in the formulation required to kill fifty percent of the test insects--i.e., the LC50 dosage--was determined.

The subject of experiment [2] is Pea aphids (Acyrthosiphon pisum (Harris)). Kind of experiment: Pea aphid test on sprayed broad bean plants (living aphids counted at 18 to 20 hours). The note with it: concentration by weight in the formulation. The protocol:
II. Pea aphids (Acyrthosiphon pisum (Harris)) were tested by placing about 100 aphids on broad bean plants. The plants were sprayed with dilutions of an acetone solution of the test compound in water containing an emulsifier and held in containers under laboratory conditions for 18 to 20 hours, at which time the living aphids in the containers were counted. The tests were conducted employing several different dosage rates for each test compound.
as §1

The subject of experiment [3] is Corn earworm larvae (Heliothis zea (Boddie)). Kind of experiment: Corn earworm larvae test on sprayed broad bean plant (44-46 hours). The note with it: concentration by weight in the formulation. As for the experimental part: V. Corn earworm larvae (Heliothis zea (Boddie)) were tested by spraying a broad bean plant with dilutions of an acetone solution of the test compound in water containing an emulsifier. Immediately after spraying, 5 larvae were transferred to the plant and held for 44-46 hours, at which time the dead and moribund larvae were counted. The tests were conducted employing several different dosage rates for each test compound.
as §1

The subject of experiment [4] is Adult female two-spotted mites (Tetranychus urticae (Koch)). Briefly: Two-spotted spider mite test on sprayed pinto bean leaves (about 20 hours). As to conditions: concentration by weight in the formulation. The protocol: III. Adult female two-spotted mites (Tetranychus urticae (Koch) was tested by placing 50-75 mites on the bottom side of leaves of pinto bean plants. The leaves were sprayed with dilutions of an acetone solution of the test compound in water containing an emulsifier and kept under laboratory conditions for about 20 hours, at which time mortality counts were made. The tests were conducted employing several different dosage rates for each test compound.
as §1

The subject of experiment [5] is Mosquito larvae (Anopheles albimanus (Weide)). Briefly: Mosquito larvae test in water (mortality after 18-22 hours). As to conditions: in distilled water. The protocol:
IV. Mosquito larvae (Anopheles albimanus (Weide)) were tested by placing 10 living and active mosquito larvae in a jar containing a 0.1 ml aliquot of a 1% acetone solution of the test compound thoroughly mixed with 100 ml of distilled water. After 18-22 hours, mortality counts were taken. Both dead and moribund larvae were counted as dead. […] The tests were conducted employing several different dosage rates for each compound.
as §1

Regarding `COC(=O)NN(C(=O)Cl)c1cccc2c1OC(C)(C)C2` [Compound 1, 2-(2-chlorocarbonyl)-2-(2,3-dihydro-2,2-dimethylbenzofuran-7-yl)hydrazinecarboxlic acid methyl ester], in experiment [1], the “LC50 Housefly” value was greater than 0.5 % w. Further, in experiment [2], the “LC50 Pea Aphid” value is 0.00008 % w. In addition, the “LC50 Corn Earworm” value in experiment [3] is reported as 0.043 % w. Further, the “LC50 Spider mite” value in experiment [4] is on record as greater than 0.02 % w. The “LC50 Mosquito Larvae” value in experiment [5] is on record as 0.016 ppm.
`CCOC(=O)NN(C(=O)Cl)c1cccc2c1OC(C)(C)C2` [Compound 2, 2-(2-chlorocarbonyl)-2-(2,3-dihydro-2,2-dimethyl-benzofuran-7-yl)hydrazinecarboxylic acid ethyl ester]: in experiment [1], the “LC50 Housefly” value was greater than 0.5 % w. The “LC50 Pea Aphid” value in experiment [2] was determined as 0.0003 % w. Also, the “LC50 Corn Earworm” value in experiment [3] came to 0.1 % w. In addition, the “LC50 Spider mite” value in experiment [4] is given as greater than 0.2 % w. Moreover, the “LC50 Mosquito Larvae” value in experiment [5] is listed as greater than 0.1 ppm.
`COC(=O)NN(C(=O)Cl)c1ccc(C)c2c1OC(C)(C)C2` [Compound 4, 2-(2-chlorocarbonyl)-2-(2,3-dihydro-2,2,4-trimethylbenzofuran-7-yl)hydrazinecarboxylic acid methyl ester]: the “LC50 Housefly” value in experiment [1] was greater than 0.5 % w. The “LC50 Pea Aphid” value in experiment [2] is 0.0002 % w. Further, the “LC50 Corn Earworm” value in experiment [3] worked out at 0.033 % w. In addition, the “LC50 Spider mite” value in experiment [4] was greater than 0.2 % w. The “LC50 Mosquito Larvae” value in experiment [5] stood at 0.02 ppm.
For `COC(=O)NN(C(=O)Cl)c1cccc2c1OC(C)C2` (centres unmarked) [Compound 5, 2-(2-chlorocarbony)-2-(2,3-dihydro-2-methylbenzofuran-7-yl)-hydrazinecarboxylic acid methyl ester], the “LC50 Housefly” value in experiment [1] was greater than 0.5 % w. Also, in experiment [2], the “LC50 Pea Aphid” value came out at 0.0005 % w. Also, the “LC50 Corn Earworm” value in experiment [3] is given as 0.057 % w. In addition, the “LC50 Spider mite” value in experiment [4] is given as greater than 0.2 % w. For the same compound, the “LC50 Mosquito Larvae” value in experiment [5] came out at 0.039 ppm.
